Like-named read-outs stand apart in the source and are kept apart here. Peptide text beside a SMILES is read from it.
Legend:
HIV-1 [1] = conditions: 100 μM, HUT78 cells; for p24 / reduction (%): Experiment 6, Day 7 HIV-1; for HIV-1 infection, result in words: summary of Experiment 6
Method: In experiment 6 (Table 7 and FIG. 1), approximately 200,000 HUT78 cells were infected with HIV-1 at 25 TCID50 to test the inhibitory effect of GPG-NH2, RQG-NH2, KQG-NH2, ALG-NH2, GVG-NH2, VGG-NH2, ASG-NH2, SLG-NH2, and SPT-NH2. The HUT cells were resuspended in lml of RPMI 1640 medium supplemented with 10% (v/v) heat-inactivated fetal bovine serum (FBS, GIBCO), penicillin (100 u/ml), streptomycin (100 u/ml) and Polybrene (Sigma, 2 μg/ml) with or without the presence of the different small peptides (100 μM) mentioned above. Thereafter, the HIV-1 virus was added at 25 TCID50 in a volume of 20 μl. Cells were incubated with the virus at 37° C. for one hour and, subsequently, the cells were pelleted at 170×g for seven minutes. The cells were then washed three times in RPMI medium without peptides at room temperature by cell sedimentation at 170×g for seven minutes, as above. After the final wash, the cells were resuspended in RPMI culture medium containing the peptides in 24-well plate (Costar corporation) and were kept at 37° C. in 5% CO2 with humidity. Culture supernatants were collected when medium was changed at day 4, 7, and 11 post infection and viral p24 production was monitored by using an HIV-1 p24 ELISA kit (Abbott Laboratories, North Chicago, USA).

HIV-1 SF-2 virus = assay: electron microscopy of HIV-1 particles from infected HUT78 cells; type: cell-based; conditions: 0.5μM; cells fixed day 14
Method: In this set of experiments, HUT78 cells were infected with HIV-1 SF-2 virus at 300TCID50 for 1 hr at 37° C. Subsequently, the infected cells were washed and pelleted 3 times, as described in Example 2. Thereafter, the cells were resuspended in RPMI culture medium supplemented with 10% FBS, antibiotics (100 u/ml) and polybrene (3.2 μg/ml). GPG-NH2 was then added into the cell cultures 3, 5 or 7 days post infection at concentration of 1 μM or 10 μM. A control sample was administered 0.5μM Ritonavir (a protease inhibitor).
The cells were cultured until day 14, at which point, the cells were fixed in 2.5% glutaraldehyde by conventional means. The fixed cells were then postfixed in 1% OSO4 and were dehydrated, embedded with epoxy resins, and the blocks were allowed to polymerize. Epon sections of virus infected cells were made approximately 60-80 nm thin in order to accommodate the width of the nucleocapsid. The sections were mounted to grids stained with 1.0% uranyl acetate and were analyzed in a Zeiss CEM 902 microscope at an accelerating voltage of 80 kV. The microscope was equipped with a spectrometer to improve image quality and a liquid nitrogen cooling trap was used to reduce beam damage. The grids having sections of control and GPG-NH2 incubated cells were examined in several blind studies.

[2] = tested on: HIV-1 isolate p7141 (high PI); assay: resistant HIV-1 isolates in PBMC, p24 ELISA; type: cell-based; conditions: Rito 0.1 μM, 14 days post infection
[3] = tested on: HIV-1 isolate p7300 (low PI); assay: resistant HIV-1 isolates in PBMC, p24 ELISA; type: cell-based; conditions: Rito 0.1 μM, 14 days post infection
SIV = SIV infectivity assay in H9 cells, RT activity in supernatant; type: cell-based
HIV-2 = HIV-2 infectivity assay in H9 cells, RT activity in supernatant; type: cell-based
HIV-1 [4] = conditions: H9 cells; for Day 7 RT HIV-1 / Day 10 RT HIV-1: 100 μM
From the text: (§1) In this example, the methods that were used to analyze the ability of various tripeptides to inhibit HIV-1, HIV-2, and SIV replication are disclosed. In Experiments 1 and 2, approximately 200,000 H9 cells were infected with HIV-1, HIV-2 or SIV at 25 TCID50 to test the inhibitory effect of the following synthesized tripeptides LKA-NH2, ILK-NH2, GPQ-NH2, GHK-NH2, GKG-NH2, ACQ-NH2, CQG-NH2, ARV-NH2, KAR-NH2, HKA-NH2, GAT-NH2, KAL-NH2, and GPG-NH2. Accordingly, the H9 cells were resuspended with or without the different peptides (approximately 100 μM) in 1 ml of RPMI 1640 medium supplemented with 10% (v/v) heat-inactivated fetal bovine serum (FBS), penicillin (100 u/ml), and streptomycin (100 u/ml), all available through GIBCO, and Polybrene (2 μg/ml), available through Sigma. Thereafter, viruses were added at 25 TCID50 in a volume of 20-30μl. Cells were incubated with virus at 37° C. for 1 hr then pelleted at 170×g for 7 minutes. The cells were then washed three times in RPMI medium without peptides at room temperature and pelleted at 170×g for 7 minutes, as above. After the final wash, the cells were resuspended in RPMI culture medium containing the peptides in a 24-well plate (Costar corporation) and were kept at 37° C. in 5% CO2 with humidity.
(§2) Culture supernatants were collected and analyzed when the medium was changed at 4, 7, 10, and 14 days post infection. To monitor the replication of virus, reverse transcriptase (RT) activity in the supernatants was assayed using a commercially available Lenti-RT activity kit. (Cavidi Tech, Uppsala, Sweden). The amount of RT was determined with the aid of a regression line of standards. The results are presented as absorbance values (OD) and higher absorbance indicates a higher protein concentration and greater viral infection. Syncytium formation was also monitored by microscopic examination.
In Experiment 3, (Table 4), approximately 200,000 H9 cells were infected with HIV-1, HIV-2 or SIV at 25 TCID50 to test the inhibitory effect of different concentrations of peptides GPG-NH2, GKG-NH2 and CQG-NH2 and combinations of these peptides (the indicated concentration corresponds to the concentration of each tripeptide). As above, H9 cells were resuspended with or without the different peptides at varying concentrations in 1 ml of RPMI 1640 medium supplemented with 10% (v/v) heat-inactivated fetal bovine serum (FBS), penicillin (100 u/ml), and streptomycin (100 u/ml), and Polybrene (2 μg/ml). Thereafter, viruses were added at 25 TCID50 in a volume of 20-30 μl. Cells were incubated with the indicated virus at 37° C. for 1 hr then pelleted at 170×g for 7 minutes. The cells were then washed three times in RPMI medium without peptides at room temperature and pelleted at 170×g for 7 minutes, as above. After the final wash, the cells were resuspended in RPMI culture medium containing the peptides in a 24-well plate (Costar corporation) and kept at 37° C. in 5% CO2 with humidity.
Culture supernatants were collected when the medium was changed at 4, 7, and 11 days post infection. As above, the replication of each virus was monitored by detecting reverse transcriptase (RT) activity in the supernatants using the Lenti-RT activity kit. (Cavidi Tech). The amount of RT was determined with the aid of a regression line of standards. The results are presented as absorbance values (OD) and higher absorbance indicates a higher protein concentration and greater viral infection.
In Experiment 4, (Table 5) approximately 200,000 H9 cells were infected with HIV-1 at 25 TCID50 to test the inhibitory effect of different concentrations of peptides GPG-NH2, GKG-NH2 and CQG-NH2 and combinations of these peptides (the indicated concentration corresponds to the total concentration of tripeptide).

HIV-1 [5] = conditions: 100 μM, H9 cells
From the text: as §1, §2

CC(C)C[C@H](NC(=O)[C@H](C)N)C(=O)NCC(N)=O [ALG-NH2, alanyl-leucyl-glycine amide] (H-Ala-Leu-Gly-NH2)
p24 (HIV-1 [1]): 42 pg/mL
reduction (%) (HIV-1 [1]): ~100%
HIV-1 infection, result in words (HIV-1 [1]): inhibited and/or prevented HIV-1 infection

C[C@H](N)C(=O)N[C@@H](CO)C(=O)NCC(N)=O [ASG-NH2, alanyl-seryl-glycine amide] (H-Ala-Ser-Gly-NH2)
p24 (HIV-1 [1]): 15000 pg/mL
reduction (%) (HIV-1 [1]): 25%

CC(C)[C@H](NC(=O)CN)C(=O)NCC(N)=O [GVG-NH2, glycyl-valyl-glycine amide] (H-Gly-Val-Gly-NH2)
p24 (HIV-1 [1]): 15000 pg/mL
reduction (%) (HIV-1 [1]): 25%

NCCCC[C@H](N)C(=O)N[C@@H](CCC(N)=O)C(=O)NCC(N)=O [KQG-NH2, lysyl-glutaminyl-glycine amide] (H-Lys-Gln-Gly-NH2)
p24 (HIV-1 [1]): 154 pg/mL
reduction (%) (HIV-1 [1]): ~100%
reduction (%) (HIV-1 [1]; listed as KQG—NH2): 99%
HIV-1 infection, result in words (HIV-1 [1]): inhibited and/or prevented HIV-1 infection

N=C(N)NCCC[C@H](N)C(=O)N[C@@H](CCC(N)=O)C(=O)NCC(N)=O [RQG-NH2, arginyl-glutaminyl-glycine amide] (H-Arg-Gln-Gly-NH2)
p24 (HIV-1 [1]): 113 pg/mL
reduction (%) (HIV-1 [1]): ~100%
reduction (%) (HIV-1 [1]; listed as RQG—NH2): 99%
HIV-1 infection, result in words (HIV-1 [1]): inhibited and/or prevented HIV-1 infection

CC(C)c1nc(CN(C)C(=O)N[C@H](C(=O)N[C@@H](Cc2ccccc2)C[C@H](O)[C@H](Cc2ccccc2)NC(=O)OCc2cncs2)C(C)C)cs1 [Ritonavir, reference compound]
viral particle structure, electron microscopy (HIV-1 SF-2 virus): malformed structures that did not have a discemable nucleocapsid
% reduction [2]: (14%)
HIV-1 p24 [2]: 98000 pg/mL
% reduction [3]: (56%)
HIV-1 p24 [3]: 64000 pg/mL

CC(C)C[C@H](NC(=O)[C@@H](N)CO)C(=O)NCC(N)=O [SLG-NH2, seryl-leucyl-glycine amide] (H-Ser-Leu-Gly-NH2)
p24 (HIV-1 [1]): 114 pg/mL
reduction (%) (HIV-1 [1]): ~100%
reduction (%) (HIV-1 [1]; listed as SLG—NH2): 99%
HIV-1 infection, result in words (HIV-1 [1]): inhibited and/or prevented HIV-1 infection

C[C@@H](O)[C@H](NC(=O)[C@@H]1CCCN1C(=O)[C@@H](N)CO)C(N)=O [SPT-NH2, seryl-prolyl-threonine amide] (H-Ser-Pro-Thr-NH2)
p24 (HIV-1 [1]): 15000 pg/mL
reduction (%) (HIV-1 [1]): 25%

CC(C)[C@H](N)C(=O)NCC(=O)NCC(N)=O [VGG-NH2, valyl-glycyl-glycine amide] (H-Val-Gly-Gly-NH2)
p24 (HIV-1 [1]): 10000 pg/mL
reduction (%) (HIV-1 [1]): 50%

Lys-Ala-Leu [KAL-NH2]
Day 7 RT SIV (SIV; Experiment 1, 100 μM): 1.091 OD
Day 10 RT SIV (SIV; Experiment 1, 100 μM): 2.524 OD
Day 7 RT SIV (SIV; Experiment 2, 100 μM): 0.511 OD
Day 10 RT SIV (SIV; Experiment 2, 100 μM): 2.663 OD
Day 7 RT HIV-2 (HIV-2; Experiment 1, 100 μM): 3.372 OD
Day 10 RT HIV-2 (HIV-2; Experiment 1, 100 μM): 2.749 OD
Day 7 RT HIV-2 (HIV-2; Experiment 2, 100 μM): 1.757 OD
Day 10 RT HIV-2 (HIV-2; Experiment 2, 100 μM): 2.383 OD
Day 7 RT HIV-1 (HIV-1 [4]; Experiment 1): 0.246 OD
Day 10 RT HIV-1 (HIV-1 [4]; Experiment 1): 1.995 OD
Day 7 RT HIV-1 (HIV-1 [4]; Experiment 2): 0.999 OD
Day 10 RT HIV-1 (HIV-1 [4]; Experiment 2): 2.791 OD
HIV-1 infection, result in words (HIV-1 [4]; summary of Experiments 1-5): failed to prevent infection
HIV-1 Syncytia (HIV-1 [5]; Experiment 1): pos
HIV-1 Syncytia (HIV-1 [5]; Experiment 2): pos

Source: patent US20020091086A1, “Peptides that block viral infectivity and methods of use thereof” (priority 1999, published 2002)
